Source: US12618095B2, “Medium for Bacillus cereus group detection” (SHIMADZU DIAGNOSTICS CORPORATION, priority 2020, dated 2026)

Tested on: B. cereus
Experiment: Test Example 9: concentration of amphotericin B

In the case of `C[C@@H]1[C@H](O)[C@@H](C)/C=C/C=C/C=C/C=C/C=C/C=C/C=C/[C@H](O[C@@H]2O[C@H](C)[C@@H](O)[C@H](N)[C@@H]2O)C[C@@H]2O[C@](O)(C[C@@H](O)C[C@@H](O)[C@H](O)CC[C@@H](O)C[C@@H](O)CC(=O)O[C@H]1C)C[C@H](O)[C@H]2C(=O)O` [Amphotericin B], the Number of colonies (ATCC11778, Amphotericin B 0.1 mg, 24 hours, 10^2 cfu/mL) is reported as 37, the Number of colonies (ATCC11778, Amphotericin B 0.1 mg, 24 hours, 10^3 cfu/mL) is reported as “+” and the Number of colonies (ATCC11778, Amphotericin B 0.1 mg, 24 hours, 10^4 cfu/mL) is reported as “+”. For the same molecule, the Number of colonies (ATCC11778, Amphotericin B 0.1 mg, 24 hours, 10^5 cfu/mL) was “+”, the Number of colonies (ATCC11778, Amphotericin B 0.1 mg, 44 hours, 10^2 cfu/mL) was 37 and the Number of colonies (ATCC11778, Amphotericin B 0.1 mg, 44 hours, 10^3 cfu/mL) was “+”. For the same molecule, the Number of colonies (ATCC11778, Amphotericin B 0.1 mg, 44 hours, 10^4 cfu/mL) was “+”, the Number of colonies (ATCC11778, Amphotericin B 0.1 mg, 44 hours, 10^5 cfu/mL) was “+” and the Number of colonies (ATCC11778, Amphotericin B 1.0 mg, 24 hours, 10^2 cfu/mL) was 51. The Number of colonies (ATCC11778, Amphotericin B 1.0 mg, 24 hours, 10^3 cfu/mL) was “+”, the Number of colonies (ATCC11778, Amphotericin B 1.0 mg, 24 hours, 10^4 cfu/mL) was “+” and the Number of colonies (ATCC11778, Amphotericin B 1.0 mg, 24 hours, 10^5 cfu/mL) was “+”. For the same molecule, the Number of colonies (ATCC11778, Amphotericin B 1.0 mg, 44 hours, 10^2 cfu/mL) was 51, the Number of colonies (ATCC11778, Amphotericin B 1.0 mg, 44 hours, 10^3 cfu/mL) was “+” and the Number of colonies (ATCC11778, Amphotericin B 1.0 mg, 44 hours, 10^4 cfu/mL) was “+”. The Number of colonies (ATCC11778, Amphotericin B 1.0 mg, 44 hours, 10^5 cfu/mL) was “+”, the Number of colonies (ATCC11778, Amphotericin B 10 mg, 24 hours, 10^2 cfu/mL) was 49 and the Number of colonies (ATCC11778, Amphotericin B 10 mg, 24 hours, 10^3 cfu/mL) was “+”. For the same molecule, the Number of colonies (ATCC11778, Amphotericin B 10 mg, 24 hours, 10^4 cfu/mL) was “+”, the Number of colonies (ATCC11778, Amphotericin B 10 mg, 24 hours, 10^5 cfu/mL) was “+” and the Number of colonies (ATCC11778, Amphotericin B 10 mg, 44 hours, 10^2 cfu/mL) was 49. For the same molecule, the Number of colonies (ATCC11778, Amphotericin B 10 mg, 44 hours, 10^3 cfu/mL) was “+”, the Number of colonies (ATCC11778, Amphotericin B 10 mg, 44 hours, 10^4 cfu/mL) was “+” and the Number of colonies (ATCC11778, Amphotericin B 10 mg, 44 hours, 10^5 cfu/mL) was “+”. The Number of colonies (ATCC19637, Amphotericin B 0.1 mg, 24 hours, 10^2 cfu/mL) was 36, the Number of colonies (ATCC19637, Amphotericin B 0.1 mg, 24 hours, 10^3 cfu/mL) was “+” and the Number of colonies (ATCC19637, Amphotericin B 0.1 mg, 24 hours, 10^4 cfu/mL) was “+”. For the same molecule, the Number of colonies (ATCC19637, Amphotericin B 0.1 mg, 24 hours, 10^5 cfu/mL) was “+”, the Number of colonies (ATCC19637, Amphotericin B 0.1 mg, 44 hours, 10^2 cfu/mL) was 36 and the Number of colonies (ATCC19637, Amphotericin B 0.1 mg, 44 hours, 10^3 cfu/mL) was “+”. The Number of colonies (ATCC19637, Amphotericin B 0.1 mg, 44 hours, 10^4 cfu/mL) was “+”, the Number of colonies (ATCC19637, Amphotericin B 0.1 mg, 44 hours, 10^5 cfu/mL) was “+” and the Number of colonies (ATCC19637, Amphotericin B 1.0 mg, 24 hours, 10^2 cfu/mL) was 35. For the same molecule, the Number of colonies (ATCC19637, Amphotericin B 1.0 mg, 24 hours, 10^3 cfu/mL) was “+”, the Number of colonies (ATCC19637, Amphotericin B 1.0 mg, 24 hours, 10^4 cfu/mL) was “+” and the Number of colonies (ATCC19637, Amphotericin B 1.0 mg, 24 hours, 10^5 cfu/mL) was “+”. For the same molecule, the Number of colonies (ATCC19637, Amphotericin B 1.0 mg, 44 hours, 10^2 cfu/mL) was 35, the Number of colonies (ATCC19637, Amphotericin B 1.0 mg, 44 hours, 10^3 cfu/mL) was “+” and the Number of colonies (ATCC19637, Amphotericin B 1.0 mg, 44 hours, 10^4 cfu/mL) was “+”. The Number of colonies (ATCC19637, Amphotericin B 1.0 mg, 44 hours, 10^5 cfu/mL) was “+”, the Number of colonies (ATCC19637, Amphotericin B 10 mg, 24 hours, 10^2 cfu/mL) was 39 and the Number of colonies (ATCC19637, Amphotericin B 10 mg, 24 hours, 10^3 cfu/mL) was “+”. The Number of colonies (ATCC19637, Amphotericin B 10 mg, 24 hours, 10^4 cfu/mL) was “+”, the Number of colonies (ATCC19637, Amphotericin B 10 mg, 24 hours, 10^5 cfu/mL) was “+” and the Number of colonies (ATCC19637, Amphotericin B 10 mg, 44 hours, 10^2 cfu/mL) was 39. For the same molecule, the Number of colonies (ATCC19637, Amphotericin B 10 mg, 44 hours, 10^3 cfu/mL) was “+”, the Number of colonies (ATCC19637, Amphotericin B 10 mg, 44 hours, 10^4 cfu/mL) was “+” and the Number of colonies (ATCC19637, Amphotericin B 10 mg, 44 hours, 10^5 cfu/mL) was “+”.
